# Measurements: patent publication US20100267755A1, “PYRIMIDINE DERIVATIVES” (GLAXO GROUP LIMITED, priority 2001, published 2010)
# Molecular target: T1, microsomal h-COX2 (Homo sapiens, UniProt P35354)
# T1 construct: made in house; host or cells: baculovirus infected SF9 cells
# T1 sequence (P35354 18-604): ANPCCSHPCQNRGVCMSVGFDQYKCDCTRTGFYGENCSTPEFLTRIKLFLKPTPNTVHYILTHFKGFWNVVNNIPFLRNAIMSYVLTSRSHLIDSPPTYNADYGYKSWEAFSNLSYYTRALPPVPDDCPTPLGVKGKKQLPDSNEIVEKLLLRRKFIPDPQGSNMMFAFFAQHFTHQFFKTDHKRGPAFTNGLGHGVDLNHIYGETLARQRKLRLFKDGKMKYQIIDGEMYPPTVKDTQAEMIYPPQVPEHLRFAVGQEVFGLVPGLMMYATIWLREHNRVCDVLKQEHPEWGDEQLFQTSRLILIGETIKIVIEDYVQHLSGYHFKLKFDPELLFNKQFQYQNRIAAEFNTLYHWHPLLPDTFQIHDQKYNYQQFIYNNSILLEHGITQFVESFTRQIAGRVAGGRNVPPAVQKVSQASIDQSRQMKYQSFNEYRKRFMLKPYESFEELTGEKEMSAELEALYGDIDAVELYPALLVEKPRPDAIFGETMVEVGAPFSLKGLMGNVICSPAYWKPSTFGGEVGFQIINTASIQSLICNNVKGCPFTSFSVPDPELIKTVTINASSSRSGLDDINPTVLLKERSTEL
# Assay: Inhibitory activity against microsomal h-COX2 (PGE2 by EIA)
# Assay type: biochemical
# Conditions: microsomal preparation from baculovirus infected SF9 cells; 0.1 μM arachidonic acid; read-out: COX-2 IC50
# Description: Inhibitory activity against microsomal h-COX2 was assessed against a microsomal preparation from baculovirus infected SF9 cells. An aliquot of microsomal preparation was thawed slowly on ice and a 1/40,000 dilution prepared from it into the assay buffer (sterile water, degassed with argon containing 100 mM HEPES (pH 7.4), 10 mM EDTA (pH7.4), 1 mM phenol, 1 mM reduced glutathione, 20 mg/ml gelatin and 0.001 mM Hematin). Once diluted the enzyme solution was then sonicated for 5 seconds (Branson sonicator, setting 4, 1 cm tip) to ensure a homogeneous suspension. […] Plates were then mixed and incubated at room temperature for 1 hour. Following the incubation period, 40 μl of 0.5 μM arachidonic acid was added to each well to give a final concentration of 0.1 μM. Plates were then mixed and incubated for exactly 10 minutes (room temperature) prior to addition of 25 μl 1M HCl (hydrochloric acid) to each well to stop the reaction. 25 μl of 1M NaOH (sodium hydroxide) was then added to each well to neutralise the solution prior to determination of PGE2 levels by enzyme immunoassay (EIA).
row,IC50 [µM],SMILES
1,1.3,"Cc1c(-c2ccc(S(C)(=O)=O)cc2)nc(NCc2ccccc2)nc1C(F)(F)F [Example 1, N-benzyl-5-methyl-4-[4-(methylsulfonyl)phenyl]-6-(trifluoromethyl)pyrimidin-2-amine]"
2,6.6,"Cc1c(-c2ccc(S(C)(=O)=O)cc2)nc(NCC(C)C)nc1C(F)(F)F [Example 2, N-isobutyl-5-methyl-4-[4-(methylsulfonyl)phenyl]-6-(trifluoromethyl)pyrimidin-2-amine]"
3,2.5,Cc1c(-c2ccc(S(C)(=O)=O)cc2)nc(NCc2ccccc2O)nc1C(F)(F)F [Example 3]
4,0.56,Cc1c(-c2ccc(S(C)(=O)=O)cc2)nc(NCc2cccs2)nc1C(F)(F)F [Example 4]
5,15.3,Cc1ccc(CNc2nc(-c3ccc(S(C)(=O)=O)cc3)c(C)c(C(F)(F)F)n2)cc1 [Example 5]
6,2.3,Cc1c(-c2ccc(S(C)(=O)=O)cc2)nc(NC2CCCCC2)nc1C(F)(F)F [Example 6]
7,> 100,Cc1c(-c2ccc(S(C)(=O)=O)cc2)nc(NCC2CCOCC2)nc1C(F)(F)F [Example 7]
8,26.7,CCCNc1nc(-c2ccc(S(C)(=O)=O)cc2)c(C)c(C(F)(F)F)n1 [Example 8]
9,> 98.6,Cc1c(-c2ccc(S(C)(=O)=O)cc2)nc(NCc2ccccn2)nc1C(F)(F)F [Example 9]
10,71.2,Cc1c(-c2ccc(S(C)(=O)=O)cc2)nc(NCCc2ccccn2)nc1C(F)(F)F [Example 10]
11,6.3,CCCCNc1nc(-c2ccc(S(C)(=O)=O)cc2)c(C)c(C(F)(F)F)n1 [Example 11]

# Same assay, conditions: read-out: COX-2% inhibition
row,inhibition at 10 µM [%],SMILES
1,61,"Cc1c(-c2ccc(S(C)(=O)=O)cc2)nc(NCc2ccccc2)nc1C(F)(F)F [Example 1, N-benzyl-5-methyl-4-[4-(methylsulfonyl)phenyl]-6-(trifluoromethyl)pyrimidin-2-amine]"
2,43,CCCCNc1nc(-c2ccc(S(C)(=O)=O)cc2)c(C)c(C(F)(F)F)n1 [Example 11]
